What was measured:
[1] = molecular target: T1, Recombinant STAT6 protein (STAT6(W123-T658)) (Homo sapiens, UniProt P42226); test: STAT6 Fluorescence Polarization (FP) Assay; assay type: binding; conditions: STAT6(W123-T658) 250 nM, probe 5-FAM-ApYKPFQDLI-NH2 2 nM, 45-minute incubation
T1 construct: Recombinant STAT6 protein (STAT6(W123-T658))
T1 sequence (P42226 123-658): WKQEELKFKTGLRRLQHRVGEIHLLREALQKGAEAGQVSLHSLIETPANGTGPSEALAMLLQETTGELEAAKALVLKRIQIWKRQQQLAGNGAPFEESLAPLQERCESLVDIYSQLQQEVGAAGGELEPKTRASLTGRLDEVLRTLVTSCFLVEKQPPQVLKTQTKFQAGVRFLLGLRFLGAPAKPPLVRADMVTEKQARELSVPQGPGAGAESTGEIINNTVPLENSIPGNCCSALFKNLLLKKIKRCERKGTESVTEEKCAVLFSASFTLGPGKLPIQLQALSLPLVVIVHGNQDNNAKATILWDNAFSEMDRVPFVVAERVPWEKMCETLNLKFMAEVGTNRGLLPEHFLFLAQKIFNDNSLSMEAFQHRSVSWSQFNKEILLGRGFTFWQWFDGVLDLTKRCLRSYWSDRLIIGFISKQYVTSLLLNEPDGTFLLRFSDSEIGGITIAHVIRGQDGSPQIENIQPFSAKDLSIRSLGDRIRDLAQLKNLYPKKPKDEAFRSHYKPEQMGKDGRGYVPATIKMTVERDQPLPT
Summary of the method: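 Displacement of a fluorescent phosphotyrosine peptide (5-FAM-ApYKPFQDLI-NH2, 2 nM) from STAT6(W123-T658) (250 nM), 1% DMSO, pH 7.4 HEPES buffer. After 45 min at room temperature, polarization (mP) was plotted versus log compound concentration and fitted by nonlinear regression to give IC50.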

[2] = molecular target: T2, Recombinant STAT3 protein (STAT3(G127-I722)) (Homo sapiens, UniProt P40763); test: STAT3 Fluorescence Polarization (FP) Assay; assay type: binding; conditions: STAT3(G127-I722) 25 nM, probe 5-FAM-GpYLPQTV-NH2 2 nM, 45-minute incubation
T2 construct: Recombinant STAT3 protein (STAT3(G127-I722))
T2 sequence (P40763 127-722): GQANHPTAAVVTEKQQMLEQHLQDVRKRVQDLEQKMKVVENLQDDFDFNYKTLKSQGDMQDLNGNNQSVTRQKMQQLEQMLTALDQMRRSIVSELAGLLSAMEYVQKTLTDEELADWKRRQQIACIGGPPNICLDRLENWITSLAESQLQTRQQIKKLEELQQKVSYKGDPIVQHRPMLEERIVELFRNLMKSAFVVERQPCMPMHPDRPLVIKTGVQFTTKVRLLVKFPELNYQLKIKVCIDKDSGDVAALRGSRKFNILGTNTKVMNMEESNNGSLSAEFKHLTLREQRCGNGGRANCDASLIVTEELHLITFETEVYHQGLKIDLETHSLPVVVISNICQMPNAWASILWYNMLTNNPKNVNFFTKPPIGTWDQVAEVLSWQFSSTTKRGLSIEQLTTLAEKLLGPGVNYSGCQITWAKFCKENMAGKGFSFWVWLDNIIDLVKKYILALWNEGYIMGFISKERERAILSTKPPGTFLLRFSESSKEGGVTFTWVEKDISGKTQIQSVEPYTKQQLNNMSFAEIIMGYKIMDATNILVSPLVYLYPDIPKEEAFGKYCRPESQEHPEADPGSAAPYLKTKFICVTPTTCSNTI
Summary of the method: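 Fluorescence polarization after a 45-min room-temperature incubation measured compound displacement of a 2 nM fluorescein-labelled phosphotyrosine peptide (5-FAM-GpYLPQTV-NH2) from 25 nM recombinant STAT3(G127-I722). Buffer was 10 mM HEPES pH 7.4 with 1% DMSO final. IC50s were fitted by nonlinear regression of mP against log concentration.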

SMILES | IC50 [1] [µM] | IC50 [2] [µM]
CC(=O)N1CC[C@H]2CC[C@@H](C(=O)N3CCC[C@H]3c3ccccc3)N2C(=O)[C@@H](NC(=O)c2cc3cc(C(F)(F)P(=O)(O)O)ccc3[nH]2)C1 [Compound 162, ((2-(((5S,8S,10aR)-3-acetyl-6-oxo-8-((S)-2-phenylpyrrolidine-1-carbonyl)decahydropyrrolo[1,2-a][1,5]diazocin-5-yl)carbamoyl)-1H-indol-5-yl)difluoromethyl)phosphonic acid] | 0.3 to 3 | 1 to 10
CC(=O)N1CC[C@H]2CC[C@@H](C(=O)N3CC(c4cn[nH]c4)[C@@H](C#N)C3)N2C(=O)[C@@H](NC(=O)c2cc3cc(C(F)(F)P(=O)(O)O)ccc3s2)C1 (relative stereo) [Compound 141, ((2-(((5S,8S,10aR)-3-acetyl-8-((rel-trans)-3-cyano-4-(1H-pyrazol-4-yl)pyrrolidine-1-carbonyl)-6-oxodecahydropyrrolo[1,2-a][1,5]diazocin-5-yl)carbamoyl)benzo[b]thiophen-5-yl)difluoromethyl)phosphonic acid] | 0.3 to 3 | 1 to 10
CC(=O)N1CC[C@H]2CC[C@@H](C(=O)N[C@H]3CCC[C@H]3N)N2C(=O)[C@@H](NC(=O)c2cc3cc(C(F)(F)P(=O)(O)O)ccc3[nH]2)C1 [Compound 31, ((2-(((5S,8S,10aR)-3-acetyl-8-(((1S,2R)-2-aminocyclopentyl)carbamoyl)-6-oxodecahydropyrrolo[1,2-a][1,5]diazocin-5-yl)carbamoyl)-1H-indol-5-yl)difluoromethyl)phosphonic acid] | 0.3 to 3 | 1 to 10
CC(=O)N1CC[C@H]2CC[C@@H](C(=O)N(C)Cc3ccccc3)N2C(=O)[C@@H](NC(=O)c2cc3cc(C(F)(F)P(=O)(O)O)ccc3[nH]2)C1 [Compound 54, ((2-(((5S,8S,10aR)-3-acetyl-8-(benzyl(methyl)carbamoyl)-6-oxodecahydropyrrolo[1,2-a][1,5]diazocin-5-yl)carbamoyl)-1H-indol-5-yl)difluoromethyl)phosphonic acid] | 0.3 to 3 | 1 to 10
CC(C)(CC(=O)N1CC[C@H]2CC[C@@H](C(=O)N3CC(c4cccnc4)C3)N2C(=O)[C@@H](NC(=O)c2cc3cc(C(F)(F)P(=O)(O)O)ccc3s2)C1)C1CCCCC1 [Compound 269, ((2-(((5S,8S,10aR)-3-(3-cyclohexyl-3-methylbutanoyl)-6-oxo-8-(3-(pyridin-3-yl)azetidine-1-carbonyl)decahydropyrrolo[1,2-a][1,5]diazocin-5-yl)carbamoyl)benzo[b]thiophen-5-yl)difluoromethyl)phosphonic acid] | 0.3 to 3 | ≤ 0.1
NC(=O)[C@@H]1CN(C(=O)[C@@H]2CC[C@@H]3CCN(CC(F)F)C[C@H](NC(=O)c4cc5cc(C(F)(F)P(=O)(O)O)ccc5s4)C(=O)N32)C[C@H]1c1ccccc1 (single isomer, unassigned) [Compound 245, ((2-(((5S,8S,10aR)-8-((3S,4R or 3R,4S)-3-carbamoyl-4-phenylpyrrolidine-1-carbonyl)-3-(2,2-difluoroethyl)-6-oxodecahydropyrrolo[1,2-a][1,5]diazocin-5-yl)carbamoyl)benzo[b]thiophen-5-yl)difluoromethyl)phosphonic acid] | 0.3 to 3 | 0.1 to 1
COCCOc1ccc(N(C)C(=O)[C@@H]2CC[C@@H]3CCN(C(C)=O)C[C@H](NC(=O)c4cc5cc(C(F)(F)P(=O)(O)O)ccc5[nH]4)C(=O)N32)cc1 [Compound 137, ((2-(((5S,8S,10aR)-3-acetyl-8-((4-(2-methoxyethoxy)phenyl)(methyl)carbamoyl)-6-oxodecahydropyrrolo[1,2-a][1,5]diazocin-5-yl)carbamoyl)-1H-indol-5-yl)difluoromethyl)phosphonic acid] | 0.3 to 3 | 1 to 10
CC(=O)N1CC[C@H](NC(=O)c2cc3cc(C(F)(F)P(=O)(O)O)ccc3s2)C(=O)N2[C@H](CC[C@H]2C(=O)N2CC(c3cccnc3)C2)C1 [Compound 40, ((2-(((5S,8S,10aR)-2-acetyl-6-oxo-8-(3-(pyridin-3-yl)azetidine-1-carbonyl)decahydropyrrolo[1,2-a][1,4]diazocin-5-yl)carbamoyl)benzo[b]thiophen-5-yl)difluoromethyl)phosphonic acid] | 3 to 30 | ≤ 0.1
CC(=O)N1CC[C@H]2CC[C@@H](C(=O)N3C[C@H](C#N)[C@@]4(C3)C(=O)Nc3ccccc34)N2C(=O)[C@@H](NC(=O)c2cc3cc(C(F)(F)P(=O)(O)O)ccc3s2)C1 (single isomer, unassigned) [Compound 13, ((2-(((5S,8S,10aR)-3-acetyl-8-((3R,4′R or 3S,4′S)-4′-cyano-2-oxospiro[indoline-3,3′-pyrrolidine]-1′-carbonyl)-6-oxodecahydropyrrolo[1,2-a][1,5]diazocin-5-yl)carbamoyl)benzo[b]thiophen-5-yl)difluoromethyl)phosphonic acid] | 0.3 to 3 | 1 to 10
O=C(N[C@H]1CN(C(=O)c2noc3c2CCCC3)CC[C@H]2CC[C@@H](C(=O)N3CCOCC3)N2C1=O)c1ccc2ccc(C(F)P(=O)(O)O)cc2c1 (stereo partly drawn) [Compound 358, (fluoro(7-(((5S,8S,10aR)-8-(morpholine-4-carbonyl)-6-oxo-3-(4,5,6,7-tetra-hydrobenzo[d]isoxazole-3-carbonyl)decahydropyrrolo [1,2-a][1,5]diazocin-5-yl)carbamoyl)naphthalen-2-yl)methyl)phosphonic acid] | 0.3 to 3 | > 10
CC(=O)N1CC[C@H]2CC[C@@H](C(=O)N3CC(c4ccccc4)[C@@H](c4ccccc4)C3)N2C(=O)[C@@H](NC(=O)c2cc3cc(C(F)(F)P(=O)(O)O)ccc3s2)C1 (relative stereo) [Compound 143, ((2-(((5S,8S,10aR)-3-acetyl-8-((rel-trans)-3,4-diphenylpyrrolidine-1-carbonyl)-6-oxodecahydropyrrolo[1,2-a][1,5]diazocin-5-yl)carbamoyl)benzo[b]thiophen-5-yl)difluoromethyl)phosphonic acid] | ≤ 0.3 | 1 to 10
CC(=O)N1CC[C@H]2CC[C@@H](C(=O)Nc3ccc4ccnnc4c3)N2C(=O)[C@@H](NC(=O)c2cc3cc(C(F)(F)P(=O)(O)O)ccc3s2)C1 [Compound 189, ((2-(((5S,8S,10aR)-3-acetyl-8-(cinnolin-7-ylcarbamoyl)-6-oxodecahydropyrrolo[1,2-a][1,5]diazocin-5-yl)carbamoyl)benzo[b]thiophen-5-yl)difluoromethyl)phosphonic acid] | 0.3 to 3 | 1 to 10
CC(=O)N1CC[C@H]2CC[C@@H](C(=O)N(C)c3ccc(C(C)(C)C)cc3)N2C(=O)[C@@H](NC(=O)c2ccc3ccc(C(F)(F)P(=O)(O)O)cc3c2)C1 [Compound 117, ((7-(((5S,8S,10aR)-3-acetyl-8-((4-(tert-butyl)phenyl)(methyl)carbamoyl)-6-oxodecahydropyrrolo[1,2-a][1,5]diazocin-5-yl)carbamoyl)naphthalen-2-yl)difluoromethyl)phosphonic acid] | 0.3 to 3 | > 10
CC(=O)N1CC[C@H]2CC[C@@H](C(=O)N3CCC[C@H]3Cc3cccnc3)N2C(=O)[C@@H](NC(=O)c2cc3cc(C(F)(F)P(=O)(O)O)ccc3s2)C1 [Compound 126, ((2-(((5S,8S,10aR)-3-acetyl-6-oxo-8-((S)-2-(pyridin-3-ylmethyl)pyrrolidine-1-carbonyl)decahydropyrrolo[1,2-a][1,5]diazocin-5-yl)carbamoyl)benzo[b]thiophen-5-yl)difluoromethyl)phosphonic acid] | 0.3 to 3 | 1 to 10
